From patent EP3046573B1, “AMYLIN ANALOGUES” (Zealand Pharma A/S, priority 2013, dated 2015)
Where two headings read alike, the source gives them in different places. Numbered stars: 1 amine (or outer) side, 2 acyl side, 3 side chain; on linkers, the order of the positions; unused ones are H or OH. Bridge positions count the residues as written; N and C are the ends. Square brackets hold non-standard residues; d marks the D form. Peptide text beside a SMILES is read from it. * marks the point of attachment. C20 diacid = O=C(O)CCCCCCCCCCCCCCCCCCC(=O)*; Pro(4R-NH2) = N[C@H]1CN[C@H](C(=O)O)C1; γGlu = O=C(O)[C@H](CCC(=O)[*:2])N[*:1]; NMeI = CC[C@H](C)[C@H](NC)C(=O)O; Aze = O=C(O)[C@@H]1CCN1; Sar = CNCC(=O)O

Legend:
[1] = Solubility assessment (turbidity absorbance at 325 nm); assay type: physicochemical; conditions: stock 2 mg/ml diluted 1:1, ambient temperature (typically 25°C), n=1; for Solubility, Acetate buffer pH 4: 100 mM acetate buffer pH 4.0; for Solubility, Acetate buffer pH 5: 100 mM acetate buffer pH 5.0; for Solubility, Histidine buffer pH 6: 100 mM histidine buffer pH 6.0; for Solubility, Histidine buffer pH 7: 100 mM histidine buffer pH 7.0; for Solubility, Phosphate buffer pH 6: 100 mM phosphate buffer pH 6.0; for Solubility, Phosphate buffer pH 7: 100 mM phosphate buffer pH 7.0; for Solubility, Phosphate buffer pH 7.5: 100 mM phosphate buffer pH7.5
Summary of the method: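 Peptide stock (2 mg/ml) in water acidified to pH 2.5 with HCl was diluted 1:1 into 100 mM acetate (pH 4.0, 5.0), histidine (pH 6.0, 7.0) or phosphate (pH 6.0, 7.0, 7.5) buffer. A280 and A325 were read at about 25°C, n=1. A325 ≤ 0.02 meant solubility ≥ 1 mg/ml.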

[2] = target: T1, human calcitonin receptor (hCTR2) (Homo sapiens, UniProt P30988); experiment: hCTR2 assay: induction of cAMP (AlphaScreen cAMP Assay kit) in COS7 cells expressing hCTR2; assay type: cell-based
T1 construct: expressed in transfected cells
T1 sequence (P30988 25-474): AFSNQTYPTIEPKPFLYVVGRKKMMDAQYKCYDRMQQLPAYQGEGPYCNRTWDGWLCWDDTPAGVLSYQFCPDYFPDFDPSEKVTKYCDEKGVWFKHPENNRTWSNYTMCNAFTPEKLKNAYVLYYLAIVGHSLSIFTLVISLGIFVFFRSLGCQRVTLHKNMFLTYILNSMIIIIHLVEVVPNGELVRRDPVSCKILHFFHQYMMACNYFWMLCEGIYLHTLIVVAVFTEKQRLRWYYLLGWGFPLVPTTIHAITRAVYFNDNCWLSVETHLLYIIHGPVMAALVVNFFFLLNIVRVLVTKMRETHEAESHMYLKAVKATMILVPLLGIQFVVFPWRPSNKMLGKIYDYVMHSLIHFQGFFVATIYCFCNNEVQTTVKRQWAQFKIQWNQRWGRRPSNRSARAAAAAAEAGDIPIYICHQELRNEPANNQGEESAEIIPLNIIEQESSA
Summary of the method: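 COS7 stable hCTR2 clone (RAMP-free); peptide dose-response 15 min 37° C in Tyrode pH 7.4 + 100 µM IBMX + 0.1% casein; lysis 10 min RT; AlphaScreen cAMP; 4PL fit.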

Sprague Dawley (SD) rats = experiment: Acute food intake and body weight in normal Sprague Dawley rats; assay type: in vivo; conditions: vehicle-corrected, dose 30 nmol/kg sc, once; for Body weight loss (%) after 96 hours: mean ± SEM, n = 8
Summary of the method: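 Normal male-unspecified SD rats, n = 8 per group, given a single s.c. peptide dose of 30 nmol/kg just before dark phase, with vehicle and positive control groups. Food intake recorded at 0, 4, 7, 10, 24, 48, 72 and 96 h; body weight daily; means ± SEM.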

[3] = cAMP induction in COS7 cells expressing hCTR2, average of a minimum of 3 determinations, read-out: hCTR2 EC50

| SMILES | Solubility, Acetate buffer pH 4 [1] | Solubility, Acetate buffer pH 5 [1] | Solubility, Histidine buffer pH 6 [1] | Solubility, Histidine buffer pH 7 [1] | Solubility, Phosphate buffer pH 6 [1] | Solubility, Phosphate buffer pH 7 [1] | Solubility, Phosphate buffer pH 7.5 [1] | EC50 [2] [nM] | Food intake inhibition (%) after 48 hours (Sprague Dawley (SD) rats) [%] | Body weight loss (%) after 96 hours (Sprague Dawley (SD) rats) [%] | EC50 [2, 3] [nM] |
| --- | --- | --- | --- | --- | --- | --- | --- | --- | --- | --- | --- |
| CC[C@H](C)[C@@H](C(=O)N[C@@H](CC(C)C)C(=O)N[C@@H](CO)C(=O)N[C@@H](CO)C(=O)N[C@H](C(=O)N[C@@H](CC(N)=O)C(=O)N[C@H](C(=O)NCC(=O)N[C@@H](CO)C(=O)N[C@@H](CC(N)=O)C(=O)N[C@H](C(=O)N1CC[C@H]1C(N)=O)[C@@H](C)O)C(C)C)[C@@H](C)O)N(C)C(=O)[C@H](C)NC(=O)CN(C)C(=O)[C@H](Cc1ccccc1)NC(=O)[C@H](CC(N)=O)NC(=O)[C@H](CC(N)=O)NC(=O)[C@H](CO)NC(=O)[C@H](CO)NC(=O)[C@H](CCCNC(=N)N)NC(=O)[C@H](Cc1c[nH]cn1)NC(=O)[C@H](CC(C)C)NC(=O)[C@H](Cc1ccccc1)NC(=O)[C@H](CCC(=O)O)NC(=O)[C@H](C)NC(=O)[C@H](CC(C)C)NC(=O)[C@H](CCCNC(=N)N)NC(=O)[C@H](CCC(N)=O)NC(=O)[C@@H](NC(=O)[C@H](C)NC(=O)[C@@H]1CSSC[C@H](NC(=O)[C@H](CCCNC(=N)N)NC(=O)CC[C@H](NC(=O)CCCCCCCCCCCCCCCCCCC(=O)O)C(=O)O)C(=O)N[C@@H](CC(N)=O)C(=O)N[C@@H]([C@@H](C)O)C(=O)N[C@@H](C)C(=O)N[C@@H]([C@@H](C)O)C(=O)N1)[C@@H](C)O [Compound 107, [19CD]-isoGlu-RC()NTATC()ATQRLAEFLHRSSNNF-Gly(Me)-A-Ile(Me)-LSSTNVGSNT-Aze-NH2] ({C20 diacid-γGlu}-RCNTATCATQRLAEFLHRSSNNF[Sar]A[NMeI]LSSTNVGSNT[Aze]-NH2; disulfide 2-7) | SS (SS indicates solubility ≥ 1mg/ml) | SS (SS indicates solubility ≥ 1mg/ml) | SS (SS indicates solubility ≥ 1mg/ml) | SS (SS indicates solubility ≥ 1mg/ml) | SS (SS indicates solubility ≥ 1mg/ml) | SS (SS indicates solubility ≥ 1mg/ml) | SS (SS indicates solubility ≥ 1mg/ml) | 0.18 | 83 | 6 ± 1.5 | – |
| CC[C@H](C)[C@@H](C(=O)N[C@@H](CC(C)C)C(=O)N[C@@H](CO)C(=O)N[C@@H](CO)C(=O)N[C@H](C(=O)N[C@@H](CCC(=O)O)C(=O)N[C@H](C(=O)NCC(=O)N[C@@H](CO)C(=O)N[C@@H](CCC(=O)O)C(=O)N[C@H](C(=O)N1CCC[C@H]1C(N)=O)[C@@H](C)O)C(C)C)[C@@H](C)O)N(C)C(=O)[C@H](C)NC(=O)CN(C)C(=O)[C@H](Cc1ccccc1)NC(=O)[C@H](CO)NC(=O)[C@H](CO)NC(=O)[C@H](CCCNC(=N)N)NC(=O)[C@H](Cc1c[nH]cn1)NC(=O)[C@H](CC(C)C)NC(=O)[C@H](Cc1ccccc1)NC(=O)[C@H](CCC(=O)O)NC(=O)[C@H](C)NC(=O)[C@H](CC(C)C)NC(=O)[C@H](CCCNC(=N)N)NC(=O)[C@H](CCC(N)=O)NC(=O)[C@@H](NC(=O)[C@H](C)NC(=O)[C@@H]1CSSC[C@H](NC(=O)[C@H](CCCNC(=N)N)NC(=O)CC[C@H](NC(=O)CCCCCCCCCCCCCCCCCCC(=O)O)C(=O)O)C(=O)N[C@@H](CC(N)=O)C(=O)N[C@@H]([C@@H](C)O)C(=O)N[C@@H](C)C(=O)N[C@@H]([C@@H](C)O)C(=O)N1)[C@@H](C)O [Compound 82, [19CD]-isoGlu-RC()NTATC()ATQRLAEFLHRSSF-Gly(Me)-A-Ile(Me)-LSSTEVGSETP-NH2] ({C20 diacid-γGlu}-RCNTATCATQRLAEFLHRSSF[Sar]A[NMeI]LSSTEVGSETP-NH2; disulfide 2-7) | SS (SS indicates solubility ≥ 1mg/ml) | SS (SS indicates solubility ≥ 1mg/ml) | SS (SS indicates solubility ≥ 1mg/ml) | SS (SS indicates solubility ≥ 1mg/ml) | SS (SS indicates solubility ≥ 1mg/ml) | SS (SS indicates solubility ≥ 1mg/ml) | SS (SS indicates solubility ≥ 1mg/ml) | – | 93 | 13 ± 1.0 | 0.07 |
| CC[C@H](C)[C@@H](C(=O)N[C@@H](CC(C)C)C(=O)N[C@@H](CO)C(=O)N[C@@H](CO)C(=O)N[C@H](C(=O)N[C@@H](CCC(=O)O)C(=O)N[C@H](C(=O)NCC(=O)N[C@@H](CO)C(=O)N[C@@H](CCC(=O)O)C(=O)N[C@H](C(=O)N1CCC[C@H]1C(N)=O)[C@@H](C)O)C(C)C)[C@@H](C)O)N(C)C(=O)[C@H](C)NC(=O)CN(C)C(=O)[C@H](Cc1ccccc1)NC(=O)[C@H](CO)NC(=O)[C@H](CO)NC(=O)[C@H](CCCNC(=N)N)NC(=O)[C@H](Cc1c[nH]cn1)NC(=O)[C@H](CC(C)C)NC(=O)[C@H](Cc1ccccc1)NC(=O)[C@H](CCC(=O)O)NC(=O)[C@H](C)NC(=O)[C@H](CC(C)C)NC(=O)[C@H](CCCNC(=N)N)NC(=O)[C@H](CCC(=O)O)NC(=O)[C@@H](NC(=O)[C@H](C)NC(=O)[C@@H]1CSSC[C@H](NC(=O)[C@H](Cc2c[nH]c3ccccc23)NC(=O)CC[C@H](NC(=O)CCCCCCCCCCCCCCCCCCC(=O)O)C(=O)O)C(=O)NCC(=O)N[C@@H]([C@@H](C)O)C(=O)N[C@@H](C)C(=O)N[C@@H]([C@@H](C)O)C(=O)N1)[C@@H](C)O [Compound 161, [19CD]-isoGlu-WC()GTATC()ATERLAEFLHRSSF-Gly(Me)-A-Ile(Me)-LSSTEVGSETP-NH2] ({C20 diacid-γGlu}-WCGTATCATERLAEFLHRSSF[Sar]A[NMeI]LSSTEVGSETP-NH2; disulfide 2-7) | II (II indicates solubility ≤ 1 mg/ml) | SS (SS indicates solubility ≥ 1mg/ml) | SS (SS indicates solubility ≥ 1mg/ml) | SS (SS indicates solubility ≥ 1mg/ml) | SS (SS indicates solubility ≥ 1mg/ml) | SS (SS indicates solubility ≥ 1mg/ml) | SS (SS indicates solubility ≥ 1mg/ml) | – | 99 | 10 ± 2.7 | 0.084 |
| CC[C@H](C)[C@@H](C(=O)N[C@@H](CC(C)C)C(=O)N[C@@H](CO)C(=O)N[C@@H](CO)C(=O)N[C@H](C(=O)N[C@@H](CC(N)=O)C(=O)N[C@H](C(=O)NCC(=O)N[C@@H](CO)C(=O)N[C@@H](CC(N)=O)C(=O)N[C@H](C(=O)N1C[C@H](N)C[C@H]1C(N)=O)[C@@H](C)O)C(C)C)[C@@H](C)O)N(C)C(=O)[C@H](C)NC(=O)CN(C)C(=O)[C@H](Cc1ccccc1)NC(=O)[C@H](CC(N)=O)NC(=O)[C@H](CC(N)=O)NC(=O)[C@H](CO)NC(=O)[C@H](CO)NC(=O)[C@H](CCCNC(=N)N)NC(=O)[C@H](Cc1c[nH]cn1)NC(=O)[C@H](CC(C)C)NC(=O)[C@H](Cc1ccccc1)NC(=O)[C@H](CCC(=O)O)NC(=O)[C@H](C)NC(=O)[C@H](CC(C)C)NC(=O)[C@H](CCCNC(=N)N)NC(=O)[C@H](CCC(N)=O)NC(=O)[C@@H](NC(=O)[C@H](C)NC(=O)[C@@H]1CSSC[C@H](NC(=O)[C@H](CCCNC(=N)N)NC(=O)CC[C@H](NC(=O)CCCCCCCCCCCCCCCCCCC(=O)O)C(=O)O)C(=O)N[C@@H](CC(N)=O)C(=O)N[C@@H]([C@@H](C)O)C(=O)N[C@@H](C)C(=O)N[C@@H]([C@@H](C)O)C(=O)N1)[C@@H](C)O [Compound 110, [19CD]-isoGlu-RC()NTATC()ATQRLAEFLHRSSNNF-Gly(Me)-A-Ile(Me)-LSSTNVGSNT-Apr-NH2] ({C20 diacid-γGlu}-RCNTATCATQRLAEFLHRSSNNF[Sar]A[NMeI]LSSTNVGSNT[Pro(4R-NH2)]-NH2; disulfide 2-7) | SS (SS indicates solubility ≥ 1mg/ml) | SS (SS indicates solubility ≥ 1mg/ml) | SS (SS indicates solubility ≥ 1mg/ml) | SS (SS indicates solubility ≥ 1mg/ml) | II (II indicates solubility ≤ 1 mg/ml) | SS (SS indicates solubility ≥ 1mg/ml) | SS (SS indicates solubility ≥ 1mg/ml) | 0.16 | 98 | 11 ± 1.1 | – |
